In article PMC13086964, “USP7 deubiquitinase stabilizes FAN1 to support DNA crosslink repair and suppress CAG repeat expansion” (Nature Communications, 2026):

Tests used:
FAN1-USP7 = assay: in situ proximity ligation assay (PLA), FAN1-USP7 association; type: cell-based, human; settings: HeLa cells, MMC 150 ng/ml, 24 h
Method: HeLa parental and FAN1 KO cells were grown in the absence or presence of MMC (150 ng/ml) for 24 hours. Cells were pre-extracted with CSK buffer containing 0.5% of Triton™ X-100 (Sigma–Aldrich) for 5 min on ice and fixed in 4% formaldehyde in PBS (w/v) for 20 min at room temperature (RT). Coverslips were then washed with PBS and stored overnight at 4 °C. In situ PLA was performed using Duolink PLA technology (Sigma-Aldrich) according to the manufacturer’s instructions. In brief, coverslips were blocked for 30 min at 37 °C with blocking solution and then incubated with the respective primary antibodies for 2 h at 37 °C. Coverslips were washed three times for 5 min in Wash Buffer A (0.01 M Tris, 0.15 M NaCl, and 0.05% Tween 20). Then, Duolink anti-Mouse PLUS and anti-Rabbit MINUS PLA probes were coupled to the primary antibodies for 1 h at 37 °C. After three wash steps in Wash buffer A for 5 min, the PLA probes were ligated for 30 min at 37 °C. Coverslips were then washed three times for 5 min in Wash buffer A. Amplification using the “Duolink In Situ Detection Reagents FarRed” (Sigma-Aldrich) was performed at 37 °C for 100 min. […] Lastly, the coverslips were mounted using Vectashield Mounting Media (Vector Laboratories) containing DAPI, sealed and imaged on a Leica DMI 6000 fluorescence microscope at x63 magnification. […]

USP7 foci in U2OS cells = assay: QIBC of endogenous USP7 foci; type: cell-based, human; settings: MMC 150 ng/ml, 24 h
Method: Automated multichannel wide-field microscopy for QIBC was performed using the Olympus ScanR System as described previously. Images of cell populations were acquired under non-saturating conditions with Olympus ScanR Image Acquisition software 3.2 and 3.3.0, typically 16 (4×4) images per coverslip, and identical settings were applied to all samples of the same experiment. Images were analysed with the inbuilt Olympus ScanR Image Analysis Software Version 3.2 and 3.3.0, a dynamic background correction was applied, and nuclei segmentation was performed using an integrated intensity-based object detection module based on the DAPI signal. All downstream analyses were focused on properly detected nuclei containing a 2C-4C DNA content as measured by total and mean DAPI intensities. Fluorescence intensities were quantified and are depicted as arbitrary units. Color-coded scatterplots of asynchronous cell populations were generated with Spotfire data visualization software (TIBCO Spotfire 10.10.1.7). Within one experiment, similar cell numbers were compared for the different conditions. For visualizing discrete data in scatterplots, mild jittering (random displacement of data points along discrete data axes) was applied to demerge overlapping data points. Representative scatterplots and quantifications of independent experiments, typically containing several thousand cells each, are shown. […]

How did the “PLA signals, FAN1-USP7 association” value (FAN1-USP7) turn out when `CO[C@@]12[C@H](COC(N)=O)C3=C(C(=O)C(C)=C(N)C3=O)N1C[C@@H]1N[C@@H]12` [MMC, Mitomycin C] was run?
The value was “significantly increased in numbers”.

What about the USP7 nuclear foci (USP7 foci in U2OS cells) of the same compound?
The USP7 nuclear foci was “increased modestly in numbers”.
